Converted amounts (≈) assume the structure as drawn.
How the values were obtained:
Format in all cases: functional
Enterococcus faecalis = test: Compound tested in vitro for antibacterial activity against Streptococcus faecalis(MGH-2)
Staphylococcus aureus [1] = test: Compound tested in vitro for antibacterial activity against Staphylococcus aureus (S18713)
Staphylococcus aureus [2] = test: Compound tested in vitro for antibacterial activity against Staphylococcus aureus(UC-76)

Row | MIC (Enterococcus faecalis) [µg/mL] | MIC (Staphylococcus aureus [1]) [µg/mL] | MIC (Staphylococcus aureus [2]) [µg/mL] | Compound
1 | < 0.25 | > 25 | > 25 | CN(C)/C=N\c1nc(/N=C/N(C)C)nc2ncc(Sc3ccc(Cl)c(Cl)c3)nc12
2 | 5 (≈ 13.4 µM) | > 25 | > 25 | Nc1nc(N)c2nc(Sc3cc(Cl)c(Cl)cc3Cl)cnc2n1
3 | < 0.25 | 1.5 (≈ 4.68 µM) | < 0.25 | Nc1nc(N)c2nc(Sc3cccc4ccccc34)cnc2n1
4 | < 0.25 | 2 (≈ 6.66 µM) | 2 (≈ 6.66 µM) | COc1ccc(Sc2cnc3nc(N)nc(N)c3n2)cc1
5 | 2 (≈ 5.9 µM) | > 25 | > 25 | Nc1nc(N)c2nc(Sc3ccc(Cl)c(Cl)c3)cnc2n1
6 | < 0.25 | < 0.25 | < 0.25 | Nc1nc(N)c2nc(Sc3cccc(C(F)(F)F)c3)cnc2n1
7 | 1.5 (≈ 4.68 µM) | > 25 | > 25 | Nc1nc(N)c2nc(Sc3ccc4ccccc4c3)cnc2n1

Source: ChEMBL document CHEMBL1121672, “Folate antagonists. 19. Synthesis and antimalarial effects of 6-(arylthio)-2,4-pteridinediamines” (1981)
